Where two headings read alike, the source gives them in different places.
How the values were obtained:
in vivo = details: mouse, in vivo, iv
Source text: The tolerance of acetyl-d,l-carnitine and of the other aforementioned acyl derivatives of the formula (I), as well as their salts were investigated by comparing the LD50 obtained by administering the compounds intravenously in mice with the LD50 obtained under the same experimental conditions by intravenous injection of d,l-carnitine.

isolated rat atrium = experiment: antiarrhythmic effect, isolated rat atrium method of M. Libonati and G. Segre; details: Rattus norvegicus
female rats = experiment: antifatigue effect: rota-rod; assay type: in vivo, rat; details: Rattus norvegicus, ip, 0.25 h; for responders at 200 mg/kg: read-out: percentage of animals staying on the rota-rod more than 180 seconds, 200 mg/kg i.p.; for responders at 300 mg/kg: read-out: percentage of animals staying on the rota-rod more than 180 seconds, 300 mg/kg i.p.; for responders at 400 mg/kg: read-out: percentage of animals staying on the rota-rod more than 180 seconds, 400 mg/kg i.p.; for responders at 600 mg/kg: read-out: percentage of animals staying on the rota-rod more than 180 seconds, 600 mg/kg i.p.
Summary of the method: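 Female rats dosed intraperitoneally in saline, with controls given saline alone. Every 15 min after treatment animals were placed on a 6 cm rod rotating at 16 r.p.m. Value is the percentage of animals staying on the rod for more than 180 s, per session.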

isolated rabbit hearts [1] = experiment: cardiokinetic effect on isolated heart (Langendorff): contractile force after anoxia, positive inotropic effect; details: 10 minutes from interruption of anoxic period
Summary of the method: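 Rabbit hearts were perfused Langendorff-style with oxygenated Ringer at 38.2 °C. Anoxia was applied until contractile force dropped by 80%, then the hearts were reoxygenated with or without compound. Contractile force was expressed as a percentage 10 min after the anoxic period ended.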

heart homogenates = experiment: oxygen consumption (Q O2) in heart homogenates with and without added CoA; assay type: biochemical; details: compound 10^-3 M
isolated rabbit hearts [2] = experiment: coronary vasodilator effect: coronary flow, isolated heart (Langendorff)
Summary of the method: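 Langendorff-perfused isolated rabbit hearts in oxygenated Ringer at 38.2° C; anoxia imposed until contractile force fell by 80%, then reoxygenated with or without test compound. Coronary flow, isometric contraction and ECG recorded by polygraph.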

[3] = read-out: Mean percent variation versus controls: excitability (-%)
[4] = read-out: Mean percent variation versus controls: frequency max (-%)
[5] = read-out: Mean percent variation versus controls: refractory period (+%)
[6] = read-out: Mean percent variation versus controls: rheobase (+%)
[7] = session 6 (every 15 minutes), * p < 0.05

C[N+](C)(C)CC(O)CC(=O)[O-] (racemic) [d,l-carnitine, γ-trimethyl amino β-hydroxy butyric acid]
LD50 (in vivo): ~610 mg/kg | inhibition at 0.001 µg/mL (isolated rat atrium; [3]): 12.7% | inhibition at 0.01 µg/mL (isolated rat atrium; [3]): 19.3% | inhibition at 0.1 µg/mL (isolated rat atrium; [3]): 27.1% | inhibition at 0.001 µg/mL (isolated rat atrium; [4]): 7.28% | inhibition at 0.01 µg/mL (isolated rat atrium; [4]): 23.6% | inhibition at 0.1 µg/mL (isolated rat atrium; [4]): 25.2% | activation at 0.001 µg/mL (isolated rat atrium; [5]): 18.3% | activation at 0.01 µg/mL (isolated rat atrium; [5]): 26% | activation at 0.1 µg/mL (isolated rat atrium; [5]): 31.1% | activation at 0.001 µg/mL (isolated rat atrium; [6]): 5.81% | activation at 0.01 µg/mL (isolated rat atrium; [6]): 9.07% | activation at 0.1 µg/mL (isolated rat atrium; [6]): 20.3% | responders at 200 mg/kg (female rats; session 1 (every 15 minutes)): 0% | responders at 200 mg/kg (female rats; session 2 (every 15 minutes)): 0% | responders at 200 mg/kg (female rats; session 3 (every 15 minutes)): 0% | responders at 200 mg/kg (female rats; session 4 (every 15 minutes)): 0% | responders at 200 mg/kg (female rats; session 5 (every 15 minutes), * p < 0.05): 0% | responders at 200 mg/kg (female rats; [7]): 0% | responders at 300 mg/kg (female rats; session 1 (every 15 minutes)): 0% | responders at 300 mg/kg (female rats; session 2 (every 15 minutes)): 0% | responders at 300 mg/kg (female rats; session 3 (every 15 minutes)): 0% | responders at 300 mg/kg (female rats; session 4 (every 15 minutes)): 0% | responders at 300 mg/kg (female rats; session 5 (every 15 minutes)): 10% | responders at 300 mg/kg (female rats; session 6 (every 15 minutes)): 10% | responders at 400 mg/kg (female rats; session 1 (every 15 minutes)): 0% | responders at 400 mg/kg (female rats; session 2 (every 15 minutes)): 0% | responders at 400 mg/kg (female rats; session 3 (every 15 minutes)): 8.33% | responders at 400 mg/kg (female rats; session 4 (every 15 minutes)): 25% | responders at 400 mg/kg (female rats; session 5 (every 15 minutes)): 25% | responders at 400 mg/kg (female rats; [7]): 25% | responders at 600 mg/kg (female rats; session 1 (every 15 minutes)): 0% | responders at 600 mg/kg (female rats; session 2 (every 15 minutes)): 16.7% | responders at 600 mg/kg (female rats; session 3 (every 15 minutes)): 16.7% | responders at 600 mg/kg (female rats; session 4 (every 15 minutes)): 16.7% | responders at 600 mg/kg (female rats; session 5 (every 15 minutes)): 16.7% | responders at 600 mg/kg (female rats; [7]): 25% | Contractile force, Mean ± S.E. (isolated rabbit hearts [1]; 1·10^-5 g/lt): 50.9 ± 3.01% | Contractile force, Mean ± S.E. (isolated rabbit hearts [1]; 1·10^-6 g/lt): 28.4 ± 3.15% | Contractile force, Mean ± S.E. (isolated rabbit hearts [1]; 5·10^-6 g/lt): 32.2 ± 2.90% | Q O2 (heart homogenates; added CoA 0): 7.0 μlO2 /mg protein/hr. | Q O2 (heart homogenates; added CoA 2 × 10^-6 M): 8.4 μlO2 /mg protein/hr. | Q O2 (heart homogenates; added CoA 4 × 10^-6 M): 19.5 μlO2 /mg protein/hr. | Q O2 (heart homogenates; added CoA 8 × 10^-7 M): 8.1 μlO2 /mg protein/hr. | Coronary flow, Mean ± S.E. (isolated rabbit hearts [2]; 1·10^-5 g/lt): 85.18 ± 3.26% | Coronary flow, Mean ± S.E. (isolated rabbit hearts [2]; 1·10^-6 g/lt): 74.02 ± 6.17% | Coronary flow, Mean ± S.E. (isolated rabbit hearts [2]; 5·10^-6 g/lt): 77.85 ± 3.01%
